Reference: PubChem BioAssay (NCI)
Where “and” joins values, the source holds several entries; their conditions need not be identical. Equal entries are not always repeated.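 48-hour exposure; five concentrations; linearly interpolated endpoints. Here, GI50 denotes the concentration required for 50% inhibition of growth. At the TGI there is no net growth.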

Tests used:
Assay in all cases: inhibition of tumour cell growth, NCI panel, 48 h
MDA-MB-231 breast = test system: MDA-MB-231 breast
DU-145 prostate = test system: DU-145 prostate
NCI-H23 lung = test system: NCI-H23 lung
HL-60(TB) leukemia = test system: HL-60(TB) leukemia
SF-295 CNS = test system: SF-295 CNS
TK-10 renal = test system: TK-10 renal
NCI-H460 lung = test system: NCI-H460 lung
SN12C renal = test system: SN12C renal
NCI-H226 lung = test system: NCI-H226 lung
RPMI-8226 leukemia = test system: RPMI-8226 leukemia

SMILES	GI50 (MDA-MB-231 breast)	TGI (MDA-MB-231 breast)	GI50 (DU-145 prostate)	TGI (DU-145 prostate)	GI50 (NCI-H23 lung)	TGI (NCI-H23 lung)	GI50 (HL-60(TB) leukemia)	TGI (HL-60(TB) leukemia)	GI50 (SF-295 CNS)	TGI (SF-295 CNS)	GI50 (TK-10 renal)	TGI (TK-10 renal)	GI50 (NCI-H460 lung)	TGI (NCI-H460 lung)	GI50 (SN12C renal)	TGI (SN12C renal)	GI50 (NCI-H226 lung) [µM]	TGI (NCI-H226 lung)	GI50 (RPMI-8226 leukemia)	TGI (RPMI-8226 leukemia)
N#Cc1c(-c2ccc(Cl)cc2)n(O)c2ccccc12	1.51 µM	4.38 µM	3.75 µM	> 100 µM	2.02 µM	6.9 µM	1.76 µM	5.69 µM	2.33 µM	6.09 µM	3.64 µM	9.16 µM	2.82 µM	> 100 µM	3.07 µM	> 100 µM	2.83	12 µM	1.6 µM	6.48 µM
COc1ccc(NC(=O)n2nc(N)c3ccccc32)cc1OC	53.6 µM	> 100 µM	73.1 µM	> 100 µM	83.5 µM	> 100 µM	27.9 µM	> 100 µM	37.6 µM	> 100 µM	92.4 µM	> 100 µM	34.5 µM	> 100 µM	> 100 µM	> 100 µM	83.1	> 100 µM	21.1 µM	80.8 µM
NC(=NCCCOc1ccc(Cl)cc1)Nc1ccc(Cl)cc1	1.97 µM	4.56 µM	2.67 µM	7.73 µM	2.31 µM	7.43 µM	1.88 µM	4.58 µM	2.42 µM	6.9 µM	1.75 µM	3.89 µM	2.7 µM	7.94 µM	2.75 µM	10.9 µM	3.97	19.6 µM	2.1 µM	4.66 µM
O=C(OCc1ccccc1)N1CCN(/[N+]([O-])=N/Oc2ccc([N+](=O)[O-])cc2[N+](=O)[O-])CC1	3.58 µM	9.48 µM	5.56 µM	18.7 µM	6.45 µM	44.8 µM	18.8 µM	57.3 µM	21.5 µM	49.4 µM	17.6 µM	33.4 µM	9.96 µM	40.6 µM	11.5 µM	30.1 µM	3.55	26.3 µM	2.23 µM	6.1 µM
CC[C@H]1CN2CCc3cc(OC)c(OC)cc3[C@@H]2C[C@@H]1C[C@H]1NCCc2cc(O)c(OC)cc21	0.00901 µM		0.0233 µM	0.0637 µM and 0.137 µM		0.0584 µM and 0.115 µM		0.0408 µM and 0.031 µM		0.0674 µM and 0.0385 µM and 0.153 µM	0.0278 µM and < 0.0128 µM	0.0644 µM		0.0586 µM and 0.0651 µM and 0.186 µM		0.0787 µM and 0.552 µM		0.0593 µM and 0.0285 µM		0.0779 µM and 0.0542 µM
NC(N)=NS(=O)(=O)c1ccc(NCc2c3ccccc3nc3ccccc23)cc1		> 100 µM		> 100 µM		13.2 µM		10.9 µM		22 µM		> 88 µM		19.2 µM		41.3 µM		4.85 µM		> 72.5 µM
ClC1=C(Cl)C(Cl)=C(Cl)C1=C/C=C/c1ccccc1	0.344 µM	> 100 µM	0.42 µM	1.32 µM	0.257 µM	1.14 µM	0.329 µM		0.311 µM	1.02 µM	0.562 µM	2.04 µM	0.326 µM	2.3 µM	0.407 µM	2.15 µM	0.236	0.653 µM	< 0.0374 µM	0.275 µM
NC(CSC(c1ccccc1)(c1ccccc1)c1ccc(Cl)cc1)C(=O)O (stereo unspecified)	0.442 µM	35.8 µM	0.307 µM	0.863 µM	0.487 µM	41.9 µM	0.24 µM	0.724 µM	0.216 µM	3.57 µM	13.5 µM	64.7 µM	0.342 µM	12.9 µM	0.54 µM	> 57.8 µM	5.11	49 µM	0.143 µM	21.5 µM
CC1/C=C/C=C/C=C/C=C/C=C/C=C/C=C/C(O[C@@H]2O[C@H](C)[C@H](O)[C@@H](O)[C@@H]2N)CC(O)C(C(=O)O)C(O)CC(=O)CC(O)CC(O)CC(O)CC(=O)CCCC(=O)CC(=O)OC1C(C)CC(C)C(O)CC(=O)c1ccc(N)cc1 (stereo partly specified)	0.0613 µM and 0.3 µM	0.118 µM and 0.943 µM	0.0687 µM and 0.335 µM	0.148 µM and 1.06 µM	0.055 µM and 0.187 µM	0.102 µM and 0.371 µM	0.0609 µM and 0.178 µM	0.145 µM and 0.396 µM	0.0692 µM and 0.232 µM	0.155 µM and 0.605 µM	0.0573 µM and 0.315 µM	0.104 µM and 0.983 µM	0.0611 µM and 0.229 µM	0.11 µM and 0.633 µM	0.0586 µM and 0.174 µM	0.114 µM and 0.317 µM	0.218	0.581 µM	0.0748 µM and 0.238 µM	0.171 µM and 0.682 µM
Cc1cc2cc3cc(C)c(N(C)C)cc3nc2cc1N(C)C	2.33 µM	7.59 µM	3.46 µM	25.8 µM	1.8 µM	20.8 µM	0.34 µM	> 100 µM	1.81 µM	8.52 µM	4.03 µM	31.2 µM	2.37 µM	11.5 µM	3.22 µM	29.3 µM	3.19	24 µM	4.16 µM	> 100 µM
COc1cc(C(=O)/C=C/c2cc(C(=O)c3cc(OC)c(OC)c(OC)c3)ccc2OC)ccc1N	0.713 µM	> 100 µM	1.03 µM	4.59 µM	1.42 µM	4.1 µM	1.48 µM	6.82 µM	2.3 µM	17.4 µM	3.61 µM	18 µM	2.13 µM	7.61 µM	1.62 µM	4.92 µM	2.14	7.39 µM	0.419 µM	14.1 µM
CCN(CC)c1cc(/C=C/c2ccc(OC)c(OC)c2)nc2cc(F)c(F)cc12	2.3 µM	7.47 µM	31.6 µM	> 100 µM	4.06 µM	14 µM	12.2 µM	31.3 µM	2.03 µM	4.63 µM	2.99 µM	8.75 µM	67.8 µM	> 100 µM	10.7 µM	> 100 µM	2.7	9.07 µM	22.1 µM	> 100 µM
C=C(C)[C@@H]1CC[C@]2(C)[C@H](C(=O)C=C3[C@@H]4C[C@](C)(C(=O)N5CCN(C)CC5)CC[C@]4(C)CC[C@]32C)[C@@]1(C)CCC#N	7.58 µM	14.6 µM	7.85 µM	15.3 µM	6.97 µM	14.3 µM	4.19 µM	11.8 µM	7.75 µM	15.2 µM	8.16 µM	15.5 µM	6.48 µM	13.9 µM	6.37 µM	12.9 µM	7.42	15.9 µM	5.47 µM	15.4 µM
CC(C)CCOc1ccc(-c2n[nH]c(C(F)(F)F)c2-c2cncc(C#N)c2)c(O)c1	2.43 µM	6.43 µM	4.18 µM	46.3 µM	1.77 µM	7.59 µM	1.98 µM	5.47 µM	2.33 µM	6.7 µM	3.15 µM	14.1 µM	2.5 µM	12.5 µM	2.34 µM	15.9 µM	2.57	9.98 µM	0.697 µM	4.65 µM
Cc1nc2sccn2c(=O)c1CCN1CCC(=C(c2ccc(F)cc2)c2ccc(F)cc2)CC1	15.2 µM	31.9 µM	15.7 µM	30.4 µM	13.2 µM	29 µM	5.92 µM	26.5 µM	13 µM	28.7 µM	13.9 µM	27.6 µM	7.49 µM	22.7 µM	14.5 µM	29.3 µM	15.3	41 µM	3.78 µM	25.2 µM
